Laboratory results taken from ChEMBL document CHEMBL1201862, “PubChem BioAssay data set” (2004).
Several values for one entry are separate records, joined by “and”; a condition that tells them apart may be missing. Equal entries are not always repeated.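 A five-concentration, 48-hour dose response in 96-well plates underlies each endpoint, interpolated linearly between surrounding concentrations. GI50 marks 50% less growth.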 Activity calls are given as the source filed them. Cut-off read from the data, not from the text of the source: active = GI50 up to about 1.1 µM and inactive = higher.

What was measured:
Experiment in all cases: NCI-60 cell line screen, 48 h
UO-31 = tested on: UO-31
HCT-15 = tested on: HCT-15
T47D = tested on: T47D
IGROV-1 = tested on: IGROV-1
UACC-257 = tested on: UACC-257
A498 = tested on: A498
SF-539 = tested on: SF-539
CAKI-1 = tested on: CAKI-1
PC-3 = tested on: PC-3
SNB-19 = tested on: SNB-19
SK-MEL-5 = tested on: SK-MEL-5
SK-MEL-2 = tested on: SK-MEL-2
SK-MEL-28 = tested on: SK-MEL-28
LOX IMVI = tested on: LOX IMVI
NCI-H460 = tested on: NCI-H460
HCT-116 = tested on: HCT-116
COLO 205 = tested on: COLO 205
786-0 = tested on: 786-0
MDA-N = tested on: MDA-N
OVCAR-3 = tested on: OVCAR-3
OVCAR-5 = tested on: OVCAR-5
HCC 2998 = tested on: HCC 2998
MDA-MB-435 = tested on: MDA-MB-435
SR = tested on: SR
NCI-H522 = tested on: NCI-H522
MOLT-4 = tested on: MOLT-4
K562 = tested on: K562
RPMI-8226 = tested on: RPMI-8226
SW-620 = tested on: SW-620
SN12C = tested on: SN12C
MDA-MB-231 = tested on: MDA-MB-231
DU-145 = tested on: DU-145
MCF7 = tested on: MCF7
HT-29 = tested on: HT-29
A549 = tested on: A549
RXF 393 = tested on: RXF 393
SF-268 = tested on: SF-268
SK-OV-3 = tested on: SK-OV-3
TK-10 = tested on: TK-10
HOP-92 = tested on: HOP-92
CCRF-CEM = tested on: CCRF-CEM
HL-60 = tested on: HL-60
Hs-578T = tested on: Hs-578T
OVCAR-4 = tested on: OVCAR-4
U-251 = tested on: U-251
EKVX = tested on: EKVX
Malme-3M = tested on: Malme-3M
NCI-H23 = tested on: NCI-H23
ACHN = tested on: ACHN
OVCAR-8 = tested on: OVCAR-8
NCI/ADR-RES = tested on: NCI/ADR-RES
M14 = tested on: M14
SF-295 = tested on: SF-295
HOP-62 = tested on: HOP-62
KM12 = tested on: KM12
NCI-H226 = tested on: NCI-H226

SMILES: O=[N+]([O-])c1ccc(/N=N/c2c(O)ccc3ccccc23)cc1
- GI50 (UO-31): > 100 µM (inactive) and 98.4 µM (inactive)
- GI50 (HCT-15): > 100 µM
- GI50 (T47D): > 100 µM (inactive)
- GI50 (IGROV-1): 19.4 µM (inactive) and > 32 µM (inactive)
- GI50 (UACC-257): > 100 µM (inactive)
- GI50 (A498): > 100 µM (inactive)
- GI50 (SF-539): > 100 µM (inactive)
- GI50 (CAKI-1): > 100 µM (inactive)
- GI50 (PC-3): 73.5 µM (inactive)
- GI50 (SNB-19): > 100 µM (inactive)
- GI50 (SK-MEL-5): > 100 µM (inactive)
- GI50 (SK-MEL-2): 84.9 µM (inactive)
- GI50 (SK-MEL-28): > 100 µM (inactive)
- GI50 (LOX IMVI): > 100 µM (inactive)
- GI50 (NCI-H460): > 100 µM (inactive)
- GI50 (HCT-116): > 100 µM (inactive)
- GI50 (COLO 205): > 100 µM (inactive)
- GI50 (786-0): > 100 µM (inactive)
- GI50 (MDA-N): > 100 µM (inactive)
- GI50 (OVCAR-3): 50.5 µM (inactive)
- GI50 (OVCAR-5): > 100 µM (inactive) and 65.2 µM (inactive)
- GI50 (HCC 2998): > 100 µM (inactive)
- GI50 (MDA-MB-435): > 100 µM (inactive)
- GI50 (SR): > 22.2 µM (inactive) and 21.2 µM (inactive)
- GI50 (NCI-H522): 0.293 µM (active)
- GI50 (MOLT-4): 95.1 µM (inactive)
- GI50 (K562): > 100 µM (inactive)
- GI50 (RPMI-8226): > 100 µM (inactive)
- GI50 (SW-620): > 100 µM (inactive)
- GI50 (SN12C): > 100 µM (inactive)
- GI50 (MDA-MB-231): > 100 µM (inactive)
- GI50 (DU-145): > 100 µM (inactive)
- GI50 (MCF7): > 100 µM (inactive)

SMILES: Cc1ccc(SCC(CF)OCn2cc(F)c(=O)[nH]c2=O)cc1 (stereo unspecified)
- GI50 (UO-31): > 100 µM (inactive)
- GI50 (HCT-15): > 100 µM
- GI50 (HT-29): > 100 µM (inactive)
- GI50 (T47D): > 100 µM (inactive)
- GI50 (IGROV-1): > 100 µM (inactive)
- GI50 (UACC-257): > 100 µM (inactive)
- GI50 (A498): > 100 µM (inactive)
- GI50 (A549): > 100 µM (inactive)
- GI50 (SF-539): > 100 µM (inactive)
- GI50 (RXF 393): > 100 µM (inactive)
- GI50 (CAKI-1): > 100 µM (inactive)
- GI50 (PC-3): > 100 µM (inactive)
- GI50 (SNB-19): > 100 µM (inactive)
- GI50 (SK-MEL-5): > 100 µM (inactive)
- GI50 (SF-268): > 100 µM (inactive)
- GI50 (SK-MEL-2): > 100 µM (inactive)
- GI50 (SK-OV-3): > 100 µM (inactive)
- GI50 (TK-10): > 100 µM (inactive)
- GI50 (HOP-92): > 100 µM (inactive)
- GI50 (CCRF-CEM): 55.2 µM (inactive)
- GI50 (SK-MEL-28): > 100 µM (inactive)
- GI50 (LOX IMVI): > 100 µM (inactive)
- GI50 (HL-60): 76.9 µM (inactive)
- GI50 (Hs-578T): > 100 µM (inactive)
- GI50 (OVCAR-4): > 100 µM (inactive)
- GI50 (NCI-H460): > 100 µM (inactive)
- GI50 (HCT-116): > 100 µM (inactive)
- GI50 (786-0): > 100 µM (inactive)
- GI50 (U-251): > 100 µM (inactive)
- GI50 (EKVX): > 100 µM (inactive)
- GI50 (MDA-N): > 100 µM (inactive)
- GI50 (Malme-3M): > 100 µM (inactive)
- GI50 (NCI-H23): > 100 µM (inactive)
- GI50 (OVCAR-3): > 100 µM (inactive)
- GI50 (OVCAR-5): > 100 µM (inactive)
- GI50 (HCC 2998): > 100 µM (inactive)
- GI50 (ACHN): > 100 µM (inactive)
- GI50 (MDA-MB-435): > 100 µM (inactive)
- GI50 (OVCAR-8): > 100 µM (inactive)
- GI50 (SR): > 100 µM (inactive)
- GI50 (NCI-H522): > 100 µM (inactive)
- GI50 (MOLT-4): > 100 µM (inactive)
- GI50 (K562): > 100 µM (inactive)
- GI50 (NCI/ADR-RES): > 100 µM (inactive)
- GI50 (RPMI-8226): > 100 µM (inactive)
- GI50 (SW-620): > 100 µM (inactive)
- GI50 (MDA-MB-231): > 100 µM (inactive)
- GI50 (M14): > 100 µM (inactive)
- GI50 (SF-295): > 100 µM (inactive)
- GI50 (HOP-62): > 100 µM (inactive)
- GI50 (DU-145): > 100 µM (inactive)
- GI50 (MCF7): > 100 µM (inactive)

SMILES: N#Cc1ccc(-c2ccc(Cl)cc2)n(C2OC(CO)C(O)C(O)C2O)c1=S (stereo unspecified)
- GI50 (UO-31): > 100 µM (inactive)
- GI50 (HCT-15): > 100 µM
- GI50 (HT-29): > 100 µM (inactive)
- GI50 (T47D): > 100 µM (inactive)
- GI50 (UACC-257): > 100 µM (inactive)
- GI50 (A549): > 100 µM (inactive)
- GI50 (SF-539): > 100 µM (inactive)
- GI50 (CAKI-1): > 100 µM (inactive)
- GI50 (PC-3): > 100 µM (inactive)
- GI50 (SK-MEL-5): > 100 µM (inactive) and 98.6 µM (inactive)
- GI50 (SK-MEL-28): > 100 µM (inactive)
- GI50 (LOX IMVI): > 100 µM (inactive)
- GI50 (HL-60): > 100 µM (inactive)
- GI50 (Hs-578T): > 100 µM (inactive)
- GI50 (OVCAR-4): > 100 µM (inactive)
- GI50 (NCI-H460): > 100 µM (inactive) and 86.5 µM (inactive)
- GI50 (HCT-116): > 100 µM (inactive) and 86.1 µM (inactive)
- GI50 (MDA-N): > 100 µM (inactive)
- GI50 (Malme-3M): > 100 µM (inactive)
- GI50 (OVCAR-3): > 100 µM (inactive)
- GI50 (OVCAR-5): > 100 µM (inactive)
- GI50 (HCC 2998): > 100 µM (inactive)
- GI50 (ACHN): > 100 µM (inactive)
- GI50 (OVCAR-8): > 100 µM (inactive)
- GI50 (SR): > 100 µM (inactive)
- GI50 (KM12): > 100 µM (inactive)
- GI50 (MOLT-4): > 100 µM (inactive)
- GI50 (K562): > 100 µM (inactive)
- GI50 (RPMI-8226): > 100 µM (inactive)
- GI50 (SW-620): > 100 µM (inactive)
- GI50 (SN12C): > 100 µM (inactive)
- GI50 (MDA-MB-231): > 100 µM (inactive)
- GI50 (NCI-H226): > 100 µM (inactive)
- GI50 (M14): > 100 µM (inactive)
- GI50 (DU-145): > 100 µM (inactive)
- GI50 (MCF7): 62.4 µM (inactive)
